# Results reported in EPA's ToxRefDB 2.
# How the values were obtained:
# mouse = settings: Carcinogenicity; other; Oral; Feed; dose end: 18 month; group: systemic; systemic / clinical chemistry / alanine aminotransferase (alt/sgpt) / alanine aminotransferase (alt/sgpt) + systemic / clinical chemistry / …
# rat [1] = settings: Prenatal developmental toxicity study, other, Oral, Gavage/Intubation, dose end: 15 GD
# dog [2] = settings: Subchronic oral toxicity in nonrodent, beagle, Feed, dose end: 90 day, group: systemic
# rat [3] = settings: Multigenerational reproductive toxicity study, sprague dawley, Oral, Feed, dose end: 2 generation
# rat [4] = settings: Combined chronic toxicity/carcinogenicity, other, Oral, Feed, dose end: 24 month, group: systemic
# dog [5] = settings: Chronic toxicity; beagle; Oral; Feed; dose end: 52 week; group: systemic; systemic / in life observation / body weight / body weight gain + systemic / in life observation / clinical signs / abnormal gait + systemic…
# rat [6] = settings: Subchronic oral toxicity in rodents, other, Feed, dose end: 3 month, group: systemic
# rat [7] = settings: Subchronic oral toxicity in rodents, sprague dawley, Feed, dose end: 90 day, group: systemic, systemic / hematology / platelet / platelet + systemic / urinalysis / ketones / ketones
# rabbit = settings: Prenatal developmental toxicity study, new zealand white, Oral, Gavage/Intubation, dose end: 19 GD
# [8] = group: developmental, developmental / developmental malformation / bone / incomplete ossification + developmental / developmental malformation / bone / irregular …
# [9] = group: maternal, systemic / in life observation / body weight / body weight gain
# [10] = systemic / in life observation / clinical signs / skin ulceration
# [11] = systemic / in life observation / clinical signs / skin ulceration + systemic / clinical chemistry / alkaline phosphatase (alp/alk) / …
# [12] = group: offspring, developmental / offspring survival late / lactation index / lactation index + systemic / in life observation / body weight / offspring (pup…
# [13] = group: parental, systemic / in life observation / body weight / body weight gain + systemic / in life observation / food consumption / food consumption + …
# [14] = systemic / pathology microscopic / kidney / pigmentation + systemic / pathology microscopic / liver / hypertrophy
# [15] = systemic / pathology microscopic / kidney / pigmentation + systemic / pathology microscopic / liver / hypertrophy + systemic / pathology …
# [16] = systemic / clinical chemistry / alkaline phosphatase (alp/alk) / alkaline phosphatase (alp/alk) + systemic / organ weight / liver / absolute…
# [17] = group: developmental, systemic / in life observation / body weight / fetal weight
# [18] = group: maternal, reproductive / reproductive performance / aborted / aborted + reproductive / reproductive performance / postimplantation loss / …
smiles,measurement,setting,value
C#CCOC(=O)[C@@H](C)Oc1ccc(Oc2ncc(Cl)cc2F)cc1 [Clodinafop-propargyl mixt.],LEL,mouse,11 mg/kg/day
same,LOAEL,mouse,11 mg/kg/day
same,NEL,mouse,1.1 mg/kg/day
same,NOAEL,mouse,1.1 mg/kg/day
same,LEL,rat [1]; [8],40 mg/kg/day
same,LOAEL,rat [1]; [8],40 mg/kg/day
same,NEL,rat [1]; [8],5 mg/kg/day
same,NOAEL,rat [1]; [8],5 mg/kg/day
same,LEL,rat [1]; [9],5 mg/kg/day
same,LOAEL,rat [1]; [9],> 160 mg/kg/day
same,NEL,rat [1]; [9],< 5 mg/kg/day
same,NOAEL,rat [1]; [9],≥ 160 mg/kg/day
same,LEL,dog [2]; [10],1.73 mg/kg/day
same,LOAEL,dog [2]; [10],1.73 mg/kg/day
same,NEL,dog [2]; [11],0.346 mg/kg/day
same,NOAEL,dog [2]; [11],0.346 mg/kg/day
same,LEL,rat [3]; [12],31.7 mg/kg/day
same,LOAEL,rat [3]; [12],31.7 mg/kg/day
same,NEL,rat [3]; [12],3.21 mg/kg/day
same,NOAEL,rat [3]; [12],3.21 mg/kg/day
same,LEL,rat [3]; [13],31.7 mg/kg/day
same,LOAEL,rat [3]; [13],31.7 mg/kg/day
same,NEL,rat [3]; [13],3.21 mg/kg/day
same,NOAEL,rat [3]; [13],3.21 mg/kg/day
same,LEL,rat [4]; [14],0.324 mg/kg/day
same,LOAEL,rat [4]; [14],0.324 mg/kg/day
same,NEL,rat [4]; [15],0.031 mg/kg/day
same,NOAEL,rat [4]; [15],0.031 mg/kg/day
same,LEL,dog [5],15.2 mg/kg/day
same,LOAEL,dog [5],15.2 mg/kg/day
same,NEL,dog [5],3.38 mg/kg/day
same,NOAEL,dog [5],3.38 mg/kg/day
same,LEL,rat [6]; [16],8.24 mg/kg/day
same,LOAEL,rat [6]; [16],8.24 mg/kg/day
same,NOAEL,rat [6]; [16],0.92 mg/kg/day
same,NEL,rat [6]; systemic / hematology / erythrocyte (rbc) count differential / erythrocyte (rbc) + systemic / hematology / hemoglobin (hgb) / hemoglobin (…,0.92 mg/kg/day
COc1cc(OC)nc(NC(=O)NS(=O)(=O)c2ncccc2C(=O)N(C)C)n1 [Nicosulfuron],LEL,rat [7],15 mg/kg/day
same,LOAEL,rat [7],15 mg/kg/day
same,NEL,rat [7],< 15 mg/kg/day
same,NOAEL,rat [7],< 15 mg/kg/day
same,LEL,rabbit; [17],100 mg/kg/day
same,LOAEL,rabbit; [17],1000 mg/kg/day
same,NEL,rabbit; [17],< 100 mg/kg/day
same,NOAEL,rabbit; [17],500 mg/kg/day
same,LOAEL,rabbit; [18],500 mg/kg/day
same,NOAEL,rabbit; [18],100 mg/kg/day
same,LEL,rabbit; [9],100 mg/kg/day
same,NEL,rabbit; [9],< 100 mg/kg/day
